Test results taken from patent US20150064328A1, “REBAUDIOSIDE C AND ITS STEREOISOMERS AS NATURAL PRODUCT SWEETNESS ENHANCERS” (Redpoint Bio Corporation, priority 2009, published 2015).
“Also recorded” adds a separate entry of the source.

How the values were obtained:
[1] = Double-blind controlled sweetness intensity test, sequential monadic, sip and spit (Example 1 protocol); type: in vivo, human
Excerpt: As used herein, the term “sweetness intensity” refers to the relative strength of sweet sensation as observed or experienced by an individual, e.g., a human, or a degree or amount of sweetness detected by a taster, for example on the scale from 0 (none) to 8 (very strong) (see Example 1) used in sensory evaluations according to the procedure described in American Society for Testing Materials, Special Technical Publication-434: “Manual on Sensory Testing Methods,” ASTM International, West Conshohocken, Pa. (1996). The sweetness enhancing effect of 300 μM Reb C (Chromadex, CA; purity 94.9%; 2.9% impurities other than water) on 5% (w/v-%) sucrose solution was evaluated in a double-blind controlled test conducted according to the following protocol. Three products were evaluated by trained judges as follows: • high concentration sucrose (7% w/v) • low concentration sucrose (5% w/v) • low concentration sucrose+sweetness enhancer (test compound) The products were evaluated using a sequential monadic test protocol. Subjects were given three samples to evaluate. Each subject was directed to swirl the first sample in his or her mouth for 3-5 seconds, expectorate the entire sample into a discard cup, and then assess the sweetness intensity of the sample. The intensity was rated on a score card by marking a numerical value along a scale from 0 to 8 (e.g., 0-none, 2=slight, 4=definite, 8=very strong). Following the decision regarding the sweetness intensity, subjects were instructed to rinse their mouth with water and spit in the discard cup. Subjects then were given unsalted crackers to cleanse the palate. A period of 10 minutes elapsed between presentations of each sample to reduce the potential influence of residual taste effects. A second sample was then presented and evaluated as above and the same procedure was followed until all three products were evaluated. Sample presentation was randomized to avoid order of presentation bias. To participate in the sensory panel, judges or subjects were chosen from an expert taste panel. These subjects were screened for taste acuity and were trained in evaluating solutions using the sip and spit protocol and were trained in using a rating ballot. The number of judges who participated in the study was 20. The female subjects were all non-pregnant and all volunteers were of <55 years of age with no history of allergy to sucrose. Judges were asked to execute an informed consent form. Specifically, the following instructions were given to the judges: Please take a sip of water. Carefully take the cap off the sample cup placed in front of you. Sip, swirl for 3-5 seconds, and then spit the sample into the cup provided, then assess the intensity of the sweetness of the sample. Please evaluate the sample for the intensity of the sweet flavor and put a vertical mark on the number that best describes the intensity. Rinse your mouth with the water provided and spit into the discard cup. Use crackers provided to cleanse your palate before evaluating the next sample. If any other flavor was present in the sample please describe it. Please rinse your mouth again several times and have some more water and unsalted crackers. You will now have a rest period of 10 minutes before you will be given the next sample.

[2] = Double-blind controlled sweetness intensity test, sequential monadic, taste and swallow (Example 6 protocol); type: in vivo, human
[3] = Forced-choice taste test of Reb C water solution versus water; type: in vivo, human; conditions: 250 μM Reb C water solution
Procedure: The taste of a 250 μM Reb C solution was evaluated by a test group having five (5) subjects as follows (Forced-choice): Subjects were presented with 2 cups, each containing 10 ml of either 250 μM Reb C water solution or water (room temperature). […] Subjects were asked to sip most or all of the 10 ml from the first cup, swish the liquid in their oral cavity, and expectorate into a cup, then rinse their mouths vigorously with water. Soon thereafter, the contents of the second cup were sampled in the same manner. Then, subjects were asked to choose the sweeter of the two samples, or if not sweet, to describe the qualitative taste profile of the sample having a detectable taste.

[4] = Open qualitative taste report of Reb C water solutions; type: in vivo, human; conditions: 250 and 300 μM Reb C in water; all 4 subjects gave the same description
Procedure: The taste of 250 μM and 300 μM Reb C solutions were evaluated as follows by another test group having four (4) subjects as follows: 10 ml solutions of 250 and 300 μM Reb C in water were sampled by four subjects who were asked to report their qualitative taste experience of the solutions.

[5] = Quantitative taste profile by trained panel (sweet, bitter, salt, sour, licorice); type: in vivo, human
Procedure: The taste of 150, 300, and 600 μM Reb C was evaluated by a test group. 10 panelists were trained over a period of a few weeks to provide a quantitative flavor profile of Reb C. Panelists first were trained using standard tastants representing the different taste modalities given in FIG. 7 (i.e., sweet, bitter, salt, sour, and licorice). They then were trained to use the scales when flavors were mixed together. All intensity ratings are on scales ranging from 0 (no taste) to 8 (highest intensity). The intensity rating for sweet is essentially the same as used in Examples 1 and 6. The taste profiles were obtained for 150, 300, and 600 μM Reb C. Reb A (0.2 mg/ml, a concentration used in some food/beverage applications for sweetening) was also evaluated in the test for comparison. The scale is not linear at the bottom. A rating of 1 is around the threshold for sweetness detection.

[6] = cited from earlier work
[7] = 300 μM Reb C in 8% (w/v-%) fructose solution, FIG. 16
[8] = sweetness intensities equivalent to 3% (w/v-%) sucrose
[9] = sweetness intensities equivalent to 7% (w/v-%) sucrose

C=C1C[C@@]23CC[C@H]4[C@@](C)(CCC[C@@]4(C)C(=O)O[C@@H]4O[C@H](CO)[C@@H](O)[C@H](O)[C@H]4O)[C@@H]2CC[C@]1(O[C@@H]1O[C@H](CO)[C@@H](O)[C@H](O[C@@H]2O[C@H](CO)[C@@H](O)[C@H](O)[C@H]2O)[C@H]1O[C@@H]1O[C@@H](C)[C@H](O)[C@@H](O)[C@H]1O)C3 [Reb C, Rebaudioside C]
sweetness of sucrose solution in combination with Reb C ([1]; 150 μM Reb C in 8% (w/v-%) sucrose solution, FIG. 4): between that of the 8% (w/v-%) sucrose solution and that of an 11% (w/v-%) sucrose solution
sweetness of fructose solution in combination with Reb C ([1]; 300 μM Reb C in 5% (w/v-%) fructose solution, FIG. 2): close to that of a 7% (w/v-%) fructose solution
sweetness of sucrose solution in combination with Reb C ([1]; 300 μM Reb C in 5% (w/v-%) sucrose solution, 20 judges, scale 0 to 8, FIG. 1): indistinguishable from that of a 7% (w/v-%) sucrose solution
sweetness of sucrose solution in combination with Reb C ([1]; 300 μM Reb C in 8% (w/v-%) sucrose solution, FIG. 3): close to that of an 11% (w/v-%) sucrose solution
mean sweetness intensity score ([1]; 8% (w/v-%) sucrose solution with 150 μM Reb C, scale 0 to 8, 8% sucrose solution alone scored 5.30): 6.10
statistical significance of the effect of Reb C [2, 7]: not statistically significant
sweetness of fructose solution in combination with Reb C [2, 7]: between that of the 8% (w/v-%) fructose solution and that of an 11% (w/v-%) fructose solution
sweetness of iced tea with sucrose in combination with Reb C ([2]; 300 μM Reb C in iced tea with 8% (w/v-%) sucrose, FIG. 6): between that of the 8% (w/v-%) sucrose solution and that of an 11% (w/v-%) sucrose solution
sweetness of iced tea with HFCS55 in combination with Reb C ([2]; 300 μM Reb C in iced tea with 10.39% (w/v-%) HFCS55, 20 judges, FIG. 5): indistinguishable from that of a 14.29% (w/v-%) HFCS55 (HFCS) solution
sweetness intensity of cola beverage with HFCS55 in combination with Reb C ([2]; 190 ppm Reb C, 10.39% (w/v-%) HFCS55, buffered with citric acid, pH 2.7-2.8, FIG. 10): significantly increases the sweetness intensity to that of 14.29% HFCS55
sweetness of cola beverage with HFCS55 in combination with Reb C ([2]; 190 ppm Reb C, 10.39% (w/v-%) HFCS55, buffered with phosphoric acid, FIG. 14): not higher than that of 10.39% (w/v-%) HFCS55 cola beverage alone
sweetness of lemon-lime soda with HFCS55 in combination with Reb C ([2]; 190 ppm Reb C, 10.39% (w/v-%) HFCS55, citric acid 0.15%, pH 2.6-2.7, FIG. 12): did not reach the sweetness of a 14.29% (w/v-%) HFCS55 solution
sweetness of erythritol solution in combination with Reb C ([2]; 285 ppm (300 μM) Reb C in 7.14% erythritol solution, equivalent to 5% (w/v-%) sucrose, FIG. 9): significantly sweeter than the 7.14% erythritol solution alone, but did not achieve the sweetness of a 10% erythritol solution
sweetness intensity of cola beverage with HFCS55 in combination with Reb C ([2]; 310 ppm Reb C, 10.39% (w/v-%) HFCS55, buffered with phosphoric acid, FIG. 15): increased significantly the sweetness intensity of a cola beverage containing 10.39% (w/v-%) HFCS55, but did not reach the sweetness of a 14.29% (w/v-%) HFCS55 cola beverage
sweetness of unsweetened cola beverage with Reb C ([2]; concentrations 190 ppm or below (95, 190 and 285 ppm tested), FIG. 11): does not increase the sweetness of an unsweetened cola beverage
sweetness of unsweetened lemon-lime soda with Reb C ([2]; control group of Example 11, concentrations 190 ppm or below (95, 190 and 285 ppm tested)): does not increase the sweetness of an unsweetened cola beverage
identification of the sample containing Reb C versus water ([3]; 5 subjects, forced-choice): All subjects correctly identified the sample containing Reb C
qualitative taste description, one per subject ([3]; subjects 1 to 5): Metallic, not sweet; also recorded: Aversive (“Nasty”); also recorded: Slight sweet, astringent; also recorded: Faintly sweet; also recorded: Slight sweet/licorice
qualitative taste description [4]: Both concentrations bitter and/or licorice
unpleasant tastes, bitter and licorice ([5]; 150, 300 and 600 μM Reb C alone, FIG. 7): barely detected
intrinsic sweetness ([5]; 150, 300 and 600 μM Reb C, 10 panelists, scale 0 to 8, FIG. 7): little or no intrinsic sweetness
unpleasant tastes, bitter and licorice, when combined with sugar ([5]; Reb C combined with sugar): undetected

C=C1C[C@@]23CC[C@H]4[C@@](C)(CCC[C@@]4(C)C(=O)O[C@@H]4O[C@H](CO)[C@@H](O)[C@H](O)[C@H]4O)[C@@H]2CC[C@]1(O[C@@H]1O[C@H](CO)[C@@H](O)[C@H](O[C@@H]2O[C@H](CO)[C@@H](O)[C@H](O)[C@H]2O)[C@H]1O[C@@H]1O[C@H](CO)[C@@H](O)[C@H](O)[C@H]1O)C3 [rebaudioside A]
effect in mixtures with fructose and glucose [6, 8]: additive effect
effect in mixtures with sucrose [6, 8]: synergistic effect
effect in mixtures with fructose, glucose and sucrose ([6]; sweetness intensities equivalent to 5% (w/v-%)): additive effect
effect with a mixture with sucrose [6, 9]: additive effect
effect with mixtures with glucose and fructose [6, 9]: suppressive effect

OC[C@H]1O[C@@](CO)(O[C@H]2O[C@H](CO)[C@@H](O)[C@H](O)[C@H]2O)[C@@H](O)[C@@H]1O [sucrose, α-D-glucopyranosyl-(1->2)-β-D-fructofuranose, reference compound]
mean sweetness intensity score ([1]; 11% (w/v-%) sucrose solution, high concentration comparator, scale 0 to 8): 6.95
